Converted amounts (≈) assume the structure as drawn. “And” between values parts separate entries of the source, which are not always exact repeats. Equal entries are not always repeated. “Also recorded” adds a separate entry of the source.
Key:
NCI-H1048 tumor cells = test: In vivo anti-tumor activity in human small cell lung cancer tumor model (NCI-H1048); set-up: species or system mouse; settings: 15 mg/kg daily (qd), oral
Procedure: AZD2014 was formulated in 0.5% hydroxypropyl methylcellulose/0.1% Tween 80 and dosed oral in a volume of 10 ml/kg 5×10^6 NCI-H1048 tumor cells were injected subcutaneously in the right flank of C.B.-17 SCID female mice in a volume of 0.1 mL containing 50% matrigel. Tumor volume (measured by caliper) was calculated using the formula:length (mm)×width (mm)^2×0.52. For efficacy studies, mice were randomized based on tumor volume and growth inhibition was assessed by comparison of the differences in tumor volume between control and treated groups. Dosing began when mean tumor volume reached approximately 124 mm^3.

[1] = Plasma protein binding, Equilibrium Dialysis RED device, rabbit plasma; format: in vitro ADME; settings: female, New Zealand White, pooled frozen plasma, 30 hours at 37° C., read-out: percentage unbound
Procedure: (§1) Protein binding of Compound A (prepared as DMSO stock solutions and spiked into plasma at nominal incubation concentrations of 0.1, 1, 10 and 100 μmol/L) was evaluated in pooled frozen plasma obtained from male CD-1 mice, male Han Wistar rats, female New Zealand White rabbits, male Beagle dogs and male humans in triplicate using Equilibrium Dialysis RED device methodology (Waters N J et al., Validation of a Rapid Equilibrium Dialysis Approach for the Measurement of Plasma Protein Binding, Journal of Pharmaceutical Sciences; 2008; Volume 97; Issue 10; Pages 4586-4595, 2008). Incubations were conducted over an equilibration time of 30 hours at 37° C. Sample analysis was by HPLC-MS/MS and employed an [^13C, ^2H7] Compound A internal standard using the following bioanalytical method: […]

[2] = Plasma protein binding, Equilibrium Dialysis RED device, rat plasma; format: in vitro ADME; settings: male, Han Wistar, pooled frozen plasma, 30 hours at 37° C., read-out: percentage unbound
Procedure: as §1

[3] = Log D, octanol/water shake-flask; format: physicochemical; settings: octanol / 10 mM sodium phosphate buffer pH 7.4
Procedure: Lipophilicity (Log D) of Compound A was measured using octanol/water shake-flask principles. The aqueous solution used was a 10 mM sodium phosphate buffer with pH adjusted to 7.4. Octanol was used as the organic partitioning layer.

[4] = Cardiovascular telemetry studies in the rat; settings: Compound A 10 mg/kg, single 30-minute intravenous infusion
Procedure: The telemetry transmitters were placed in the abdominal muscle and the arterial blood pressure catheter was placed in the abdominal aorta. The ECG electrodes were sutured to the dorsal surface of the xiphoid process and at the anterior mediastinum.
Compound A was administered at dose levels of 0 and 10 mg/kg.
Cardiovascular parameters were recorded continuously via receivers placed beneath the home cage for at least 1 hour pre-dose and up to 72 hours post-dose. Blood samples were taken to determine the level of plasma exposure of Compound A and all dendrimers, with clinical pathology and limited tissues for target organ histopathology taken from animals dosed with the macromolecule constructs only.

RS4;11 cells = test: Efficacy of dendrimers in RS4;11 xenograft model in mice; format: in vivo, mouse
Procedure: 5×10^6 RS4;11 cells in a total volume of 100 μl were inoculated subcutaneously at the mouse right flank. When the tumor volume reached approximately ˜350 mm^3, tumor-bearing mice were randomized into groups of 4 animals and treated with either control Vehicle (PBS) or treatment.
(§2) On specific day, for each treated group, calculate Inhibition value by formula: Inhibition %=(CG−TG)*100/(CG−1), in which “CG” means the geometric mean of rtv of the control group and “TG” means the Geometric Mean of Relative Tumor Volume (rtv) of the treated group. “CG” should use the corresponding control group of the treated group when calculated. If Inhibition >100%, then it's necessary to calculate the Regression by formula: Regression=1−TG

[5] = Plasma protein binding, Equilibrium Dialysis RED device, human plasma; format: in vitro ADME; settings: male, pooled frozen plasma, 30 hours at 37° C., read-out: percentage unbound
Procedure: as §1

[6] = Solubility of Compound A (Form B), shake flask method; format: physicochemical; settings: thermodynamic from solid, crystalline Form B, room temperature 24 hours
Procedure: The solubility of Compound A (Form B) was determined in water and propylene glycol. […] The solutions were centrifuged using ultra centrifuge for 30 min at 40,000 rpm, supernatant were transferred to a new centrifuge tube and centrifuged for another 30 min at 40,000 rpm. The propylene glycol supernatant was then assayed using a UV-HPLC method. The water supernatant was ultra-centrifuged for a third time before assay.

[7] = Plasma protein binding, Equilibrium Dialysis RED device, dog plasma; format: in vitro ADME; settings: male, Beagle, pooled frozen plasma, 30 hours at 37° C., read-out: percentage unbound
Procedure: as §1

[8] = tested on: RS4;11 Acute Lymphoblastic Leukemia Xenograft; test: Efficacy of Compound A (HP-β-CD) at different infusion length in RS4;11 xenograft model in rats; format: in vivo, rat; settings: single IV 5 hr infusion, 30% HP-β-CD
Procedure: Rag2−/− rats purchased from (SAGE) were inoculated with RS4;1 (10×10^6 cells/rat). When tumors grew to approximately […], rats were randomized to vehicle control (30% HP-β-CD) or Compound A 5 mg/kg in Vehicle 1) delivered as a single IV 30 min infusion (FIG. 6) and Vehicle control (30% HP-β-CD) or Compound A 5 mg/kg, 3 mg/kg and 1 mg/kg in Vehicle 1 delivered as a single IV 5 hr infusion (FIG. 7). The tumor sizes were measured twice a week and calculated as: Tumor Volume=(A×B^2)/2 where A and B are the tumor length and width (in mm), respectively.

[9] = Plasma protein binding, Equilibrium Dialysis RED device, mouse plasma; format: in vitro ADME; settings: male, CD-1, pooled frozen plasma, 30 hours at 37° C., read-out: percentage unbound
Procedure: as §1

OCI-Ly10 tumor cells = test: In vivo anti-tumor activity in human DLBCL model (OCI-Ly10); set-up: species or system mouse; settings: single agent, 12.5 mg/kg twice a day oral
Procedure: 5×10^6 OCI-Ly10 tumor cells were injected subcutaneously in the right flank of C.B.-17 SCID female mice in a volume of 0.1 mL containing 50% matrigel. Example 9 was formulated in citrate/phosphate buffer pH 5.0, diluted 1 to 10 with 5% glucose containing 1% w/v Kolliphor HS15, and dosed as a weekly intravenous (iv) administration at a volume of 5 mL/kg at a dose of 103 mg/kg (30 mg/kg API). Acalabrutinib was formulated in 0.5% hydroxypropyl methyl cellulose/0.2% Tween 80, and dosed twice a day (bid) as an oral (po) administration at a volume of 10 mL/kg at a dose of 12.5 mg/kg. Tumor volumes (measured by caliper), animal body weight, and tumor condition were recorded twice weekly for the duration of the study. The tumor volume was calculated using the formula:length (mm)×width (mm)^2×0.52. For efficacy studies, growth inhibition from the start of treatment was assessed by comparison of the differences in tumor volume between control and treated groups. Dosing began when mean tumor size reached approximately 166 mm3.

SuDHL-4 xenograft = SuDHL-4 xenograft model in SCID mice, alone and with rituximab; format: in vivo, mouse
Procedure: The SuDHL-4 xenograft model was used to test the ability of Examples 6 and 9 to enhance the activity of rituximab in inhibiting tumor growth. When tumors grew to approximately 175-250 mm^3, mice were randomized to the following groups:
The tumor sizes were measured 2 times a week and calculated as: Tumor Volume=(A×B^2)/2 where A and B are the tumor length and width (in mm), respectively.
Table 17 summarizes the tumor growth inhibition (TIC) and tumor growth delay (T-C) values calculated as % Inhibition & % Regression. The calculation is based on the geometric mean of RTV in each group.
as §2

CNC(=O)c1cccc(-c2ccc3c(N4CCOC[C@@H]4C)nc(N4CCOC[C@@H]4C)nc3n2)c1 [AZD2014, vistusertib, reference compound]
TGI (NCI-H1048 tumor cells): 84%

CN(CCO)CC[C@H](CSc1ccccc1)Nc1ccc(S(=O)(=O)NC(=O)c2ccc(N3CCC([C@@H](O)c4ccccc4-c4ccc(Cl)cc4)CC3)cc2)cc1S(=O)(=O)C(F)(F)F [Compound A, 4-(4-((R)-(4′-chlorobiphenyl-2-yl)(hydroxy)methyl)piperidin-1-yl)-N-(4-((R)-4-((2-hydroxyethyl)(methyl)amino)-1-(phenylthio)butan-2-ylamino)-3-(trifluoromethylsulfonyl)phenylsulfonyl)benzamide]
fraction unbound at 30 h, 100 μmol/L [1]: 1.53e-05
fraction unbound at 30 h, 100 μmol/L [2]: < 1e-05
logD [3]: > 3.5
Cardiovascular [4]: biphasic decrease in systolic and mean arterial blood pressure; also recorded: increases in heart rate; also recorded: decrease in QRS amplitude
In-life [4]: three rats were found dead and 3 found dead
% Inhibition Day (47) (RS4;11 cells; Compound A 5 mg/kg): >100%
% Regression Day(47) (RS4;11 cells; Compound A 5 mg/kg): 90%
regression (RS4;11 cells; Compound A HP-β-CD 10 mg/kg IV once): 90%
fraction unbound at 30 h, 100 μmol/L [5]: 1.96e-05
solubility at 24 h ([6]; organic solvent or mixture, propylene glycol): 6120 µg/mL (≈ 6.47 mM)
solubility at 24 h ([6]; water, final pH 8.7): < 1 µg/mL
fraction unbound at 30 h, 100 μmol/L [7]: < 1e-05
efficacy when the infusion was prolonged [8]: Comparable efficacy
fraction unbound at 30 h, 100 μmol/L [9]: 2.35e-05

CC#CC(=O)N1CCC[C@H]1c1nc(-c2ccc(C(=O)Nc3ccccn3)cc2)c2c(N)nccn12 [acalabrutinib, reference compound]
tumor growth inhibition (TGI) (OCI-Ly10 tumor cells): ~58%

rituximab [reference compound]
T-C (SuDHL-4 xenograft; rituximab 10 mg/kg): >16 days
% Inhibition (TIC) Day (41) (SuDHL-4 xenograft; rituximab 10 mg/kg i.p. once a week for 5 weeks): 75.27%
